In patent US7662832B2, “Pyrrolo[2,3-c]pyridine derivatives and processes for the preparation thereof” (priority 2004, dated 2010):
Counter-ions that a name gives are not always drawn.

How the values were obtained:
[1] = system: basal gastric acid secretion; assay: Inhibitory effects on basal gastric acid secretion in pylorus-ligated rats (Shay's rat model); type: in vivo, Sprague Dawley (SD) rats; details: oral, one hour before pylorus ligation, total acid output 5 hours after ligation
Method: Inhibitory effects of the compounds of the present invention on basal gastric acid secretion were performed according to Shay's rat model (Shay, H., et al., 1945, gastroenterology, 5, 43-61). Male Sprague Dawley (SD) rats (200±10 g body weight) were divided into […] (n=5) and fasted for 24 hours with free access to water. Control group was orally administered with 0.5% methylcellulose alone and the other groups were orally administered with test compounds suspended in 0.5% methylcellulose solution at doses of 1, 3 and 10 mg/kg/5 ml one hour before pylorus ligation.
Under ether anesthesia, the abdomens of the rats were incised and then the pylorus was ligated. 5 hours after ligation, the animals were sacrificed, and the gastric contents were collected. The collected contents were centrifuged at 1,000×g for 10 minutes to obtain the gastric juice. Total acid output was measured by 0.01N NaOH volume (ueq/ml) for automatic titration of the gastric juice to pH 7.0 and the ED50s of test compounds were calculated using the Litchfield-Wilcoxon method. % inhibitory activity was calculated from the following equation and the results are shown in Table 2. % inhibitory activity of test compound=(total acid output of control group−total acid output of the group treated with test compounds)/total acid output of control group×100

[2] = biological target: Proton Pump (H^+/K^+-ATPase) (Sus scrofa, UniProt P19156); assay: Inhibitory effects on proton pump (H^+/K^+-ATPase) activity; type: biochemical; details: hog gastric vesicles; K^+ stimulated H^+/K^+-ATPase activity; 30 minutes at 37° C.
Chain of Proton Pump (H^+/K^+-ATPase) (P19156 2-1034 limits assumed): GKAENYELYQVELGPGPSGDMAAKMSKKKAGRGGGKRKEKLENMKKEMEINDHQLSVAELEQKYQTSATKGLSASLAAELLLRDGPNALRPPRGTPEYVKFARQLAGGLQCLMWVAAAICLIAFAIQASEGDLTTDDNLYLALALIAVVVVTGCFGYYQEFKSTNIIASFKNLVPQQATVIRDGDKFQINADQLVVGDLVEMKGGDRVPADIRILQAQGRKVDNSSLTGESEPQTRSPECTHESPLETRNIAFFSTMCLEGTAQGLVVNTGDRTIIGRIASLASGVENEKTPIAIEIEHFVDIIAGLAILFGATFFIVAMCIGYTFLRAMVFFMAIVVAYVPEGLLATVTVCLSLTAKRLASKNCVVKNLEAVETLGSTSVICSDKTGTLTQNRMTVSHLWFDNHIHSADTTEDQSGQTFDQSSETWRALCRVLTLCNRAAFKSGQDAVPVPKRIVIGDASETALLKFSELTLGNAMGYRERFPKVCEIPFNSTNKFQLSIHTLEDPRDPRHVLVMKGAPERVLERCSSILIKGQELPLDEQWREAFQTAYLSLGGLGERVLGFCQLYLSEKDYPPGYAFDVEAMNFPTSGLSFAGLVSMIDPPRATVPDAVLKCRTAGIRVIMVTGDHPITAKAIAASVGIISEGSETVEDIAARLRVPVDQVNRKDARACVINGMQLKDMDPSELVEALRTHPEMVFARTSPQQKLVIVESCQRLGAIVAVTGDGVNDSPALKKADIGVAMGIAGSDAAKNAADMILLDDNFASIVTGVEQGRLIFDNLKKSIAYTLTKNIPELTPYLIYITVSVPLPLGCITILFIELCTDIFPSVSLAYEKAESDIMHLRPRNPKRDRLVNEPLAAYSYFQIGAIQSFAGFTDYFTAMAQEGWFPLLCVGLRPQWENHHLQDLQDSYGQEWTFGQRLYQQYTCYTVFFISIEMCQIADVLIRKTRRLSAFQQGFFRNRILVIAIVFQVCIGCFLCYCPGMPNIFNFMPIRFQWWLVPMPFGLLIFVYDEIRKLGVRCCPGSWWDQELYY
Chain of Proton Pump (H^+/K^+-ATPase) (P18434 whole entry partner): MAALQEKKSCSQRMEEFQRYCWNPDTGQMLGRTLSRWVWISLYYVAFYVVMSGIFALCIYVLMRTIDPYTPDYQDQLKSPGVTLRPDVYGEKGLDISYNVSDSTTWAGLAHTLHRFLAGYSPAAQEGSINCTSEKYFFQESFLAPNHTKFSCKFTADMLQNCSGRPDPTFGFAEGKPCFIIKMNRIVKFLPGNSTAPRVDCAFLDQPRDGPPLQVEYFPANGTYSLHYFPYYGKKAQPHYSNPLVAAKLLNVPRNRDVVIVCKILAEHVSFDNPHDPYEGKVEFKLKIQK

[3] = biological target: T1, hog gastric H^+/K^+-ATPase (Sus scrofa, UniProt P19156); assay: Reversible inhibition of hog gastric H^+/K^+-ATPase (washout method); type: biochemical
T1 construct: from tissue; host or cells: hog gastric fundic mucosa; gastric vesicles (microsomes), lyophilized
T1 sequence (P19156 2-1034 limits assumed): as the sequence (P19156 2-1034 limits assumed) above
T1 sequence (P18434 whole entry partner): as the sequence (P18434 whole entry partner) above
Method: 3-1. Preparation of Gastric Vesicles
[…]. IX. Fraction and purification of K-ATPase-containing vesicles by zonal centrifugation and free-flow electrophoresis techinque. Biochem. Biophy. Acta. (BBA)-Biomembranes 465, 311-330, 1977). This matertal was lyophilized and stored at −70° C. The protein content of gastric vesicles was determined by the Bradford method using bovine serum albumin as a standard (Bradford M M, A rapid and sensitive method for the quantitation of microgram quantities of protein utilizing the principle of protein-dye binding. Anal Biochem. 72, 248-254, 1976).
3-2. Determination of Reversible Inhibition of Hog Gastric H^+/K^+-ATPase
Activity of H^+/K^+-ATPase in hog microsome (lyophilized vesicle) was measured by the inorganic phosphate released from ATP using an one-step calorimetric detection method at the concentration at which the test compounds have 50% inhibition of the proton pump (Chan K M, Delfert D, and Junger K D, A direct calorimetric assay for Ca^2+-stimulated ATPase activity. Anal Biochem, 157, 375-380, 1986). The mode of action of test compounds on H^+/K^+-ATPase was investigated according to the Washout method (Beil W, Staar U, and Sewing K F, Substituted thieno[3,4-d]imidazoles, a novel group of H^+/K+-ATPase inhibitors. Differentiation of their inhibition charactertstics from those of omeprazole. Eur. J. Pharmacol., 187, 455-67, 1990). […]

IC50 [2]	inhibition of H^+/K^+-ATPase activity after washout ([3]; after washout, compared with non-treated group)	inhibition of H^+/K^+-ATPase activity before washout ([3]; before washout, test compound at the concentration of 50% inhibition of the proton pump)	SMILES	ED50 [1]
32 nM	did not inhibit	50%	Cc1c(C)n(Cc2cccc(F)c2)c2c(N3CCc4ccccc4C3)nccc12.Cl [Example 480, 1-(3-fluorobenzyl)-7-(1,2,3,4-tetrahydroisoquinolin-2-yl)-2,3-dimethyl-1H-pyrrolo[2,3-c]pyridine hydrochloride]	1.8 mg/kg
190 nM			Cc1[nH]c2c(N3CCc4ccccc4C3)nccc2c1C.Cl [Example 468, 7-(1,2,3,4-tetrahydroisoquinolin-2-yl)-2,3-dimethyl-1H-pyrrolo[2,3-c]pyridine hydrochloride]	5.2 mg/kg
26 nM			C=CCn1c(C)c(C)c2ccnc(N3CCc4ccccc4C3C)c21.Cl (stereo not shown) [Example 553, 2-(1-allyl-2,3-dimethyl-1H-pyrrolo[2,3-c]pyridin-7-yl)-1-methyl-1,2,3,4-tetrahydroisoquinoline hydrochloride]	2.1 mg/kg
94 nM			Cc1c(C)n(CC(C)C)c2c(NCc3ccc(F)cc3)nccc12.Cl [Example 208, 7-(4-fluorobenzylamino)-1-isobutyl-2,3-dimethyl-1H-pyrrolo[2,3-c]pyridine hydrochloride]	1.3 mg/kg
146 nM			Cc1c(C)n(Cc2cccc(F)c2)c2c(N3CCc4ccccc4C3C)nccc12.Cl (stereo not shown) [Example 557, 2-[1-(3-fluorobenzyl)-2,3-dimethyl-1H-pyrrolo[2,3-c]pyridin-7-yl]-1-methyl-1,2,3,4-tetrahydroisoquinoline hydrochloride]	4.1 mg/kg
64 nM			Cc1c(C)n(Cc2ccccc2)c2c(N(C)Cc3ccc(F)cc3)nccc12 [Example 141, 1-benzyl-7-[N-(4-fluorobenzyl)-N-methyl]amino-2,3-dimethyl-1H-pyrrolo[2,3-c]pyridine hydrochloride]	2.3 mg/kg
320 nM			Cc1c(C)n(C)c2c(N3CCc4ccccc4C3)nccc12.Cl [Example 470, 7-(1,2,3,4-tetrahydroisoquinolin-2-yl)-1,2,3-trimethyl-1H-pyrrolo[2,3-c]pyridine hydrochloride]	4.4 mg/kg
